Calls of active or inactive are those of the source.
Legend:
[1] = molecular target: T1, Voltage-gated N-type calcium channel alpha-1B subunit/Amyloid beta A4 precursor protein-binding family A member 1 (Homo sapiens, UniProt Q00975+Q02410); type: protein assay
[2] = molecular target: T1, Voltage-gated N-type calcium channel alpha-1B subunit/Amyloid beta A4 precursor protein-binding family A member 1; type: protein assay; remark: listed apart in the source
[3] = molecular target: Bifunctional protein GlmU (Mycobacterium tuberculosis, UniProt P9WMN3); test: Inhibitors of Mycobacterial Glucosamine-1-phosphate acetyl transferase (GlmU). Secondary screen.; set-up: species or system Mycobacterium tuberculosis H37Rv
Sequence of Bifunctional protein GlmU (P9WMN3 whole entry): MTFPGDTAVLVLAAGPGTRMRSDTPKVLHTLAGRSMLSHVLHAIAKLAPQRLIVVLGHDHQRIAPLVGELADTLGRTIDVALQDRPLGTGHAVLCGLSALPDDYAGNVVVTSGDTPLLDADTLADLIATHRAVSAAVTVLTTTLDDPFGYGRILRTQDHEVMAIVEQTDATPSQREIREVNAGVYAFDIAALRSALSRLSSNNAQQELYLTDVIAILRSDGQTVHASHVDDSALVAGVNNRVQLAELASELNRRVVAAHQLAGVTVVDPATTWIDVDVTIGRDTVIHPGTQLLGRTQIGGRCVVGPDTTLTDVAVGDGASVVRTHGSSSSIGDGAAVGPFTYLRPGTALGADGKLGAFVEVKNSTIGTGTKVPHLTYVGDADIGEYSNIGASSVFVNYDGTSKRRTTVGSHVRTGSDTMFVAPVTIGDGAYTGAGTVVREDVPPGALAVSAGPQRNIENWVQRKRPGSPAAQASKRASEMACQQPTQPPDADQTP

[4] = molecular target: T2, Tyrosine-protein phosphatase non-receptor type 7 (Homo sapiens, UniProt P35236); test: inhibitors of human HePTP phosphatase, […], biochemical, absorbance, leukemia target (AID 521); type: functional
T2 sequence (P35236 whole entry): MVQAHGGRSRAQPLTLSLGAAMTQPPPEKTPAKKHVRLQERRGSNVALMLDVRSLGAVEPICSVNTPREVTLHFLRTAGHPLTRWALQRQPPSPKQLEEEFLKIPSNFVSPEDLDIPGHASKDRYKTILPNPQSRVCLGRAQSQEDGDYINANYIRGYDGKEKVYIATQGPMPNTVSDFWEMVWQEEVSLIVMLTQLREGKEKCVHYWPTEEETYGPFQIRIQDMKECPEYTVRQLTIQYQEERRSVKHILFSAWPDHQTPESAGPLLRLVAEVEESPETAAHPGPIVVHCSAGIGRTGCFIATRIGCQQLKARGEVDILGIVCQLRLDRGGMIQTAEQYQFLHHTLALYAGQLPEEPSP

[5] = molecular target: Metabotropic glutamate receptor 7 (Homo sapiens, UniProt Q14831); test: mGlu7 positive allosteric modulators, dose response, cell-based, calcium mobilization, Galpha15 (AID 743384); type: functional
Sequence of Metabotropic glutamate receptor 7 (Q14831 whole entry): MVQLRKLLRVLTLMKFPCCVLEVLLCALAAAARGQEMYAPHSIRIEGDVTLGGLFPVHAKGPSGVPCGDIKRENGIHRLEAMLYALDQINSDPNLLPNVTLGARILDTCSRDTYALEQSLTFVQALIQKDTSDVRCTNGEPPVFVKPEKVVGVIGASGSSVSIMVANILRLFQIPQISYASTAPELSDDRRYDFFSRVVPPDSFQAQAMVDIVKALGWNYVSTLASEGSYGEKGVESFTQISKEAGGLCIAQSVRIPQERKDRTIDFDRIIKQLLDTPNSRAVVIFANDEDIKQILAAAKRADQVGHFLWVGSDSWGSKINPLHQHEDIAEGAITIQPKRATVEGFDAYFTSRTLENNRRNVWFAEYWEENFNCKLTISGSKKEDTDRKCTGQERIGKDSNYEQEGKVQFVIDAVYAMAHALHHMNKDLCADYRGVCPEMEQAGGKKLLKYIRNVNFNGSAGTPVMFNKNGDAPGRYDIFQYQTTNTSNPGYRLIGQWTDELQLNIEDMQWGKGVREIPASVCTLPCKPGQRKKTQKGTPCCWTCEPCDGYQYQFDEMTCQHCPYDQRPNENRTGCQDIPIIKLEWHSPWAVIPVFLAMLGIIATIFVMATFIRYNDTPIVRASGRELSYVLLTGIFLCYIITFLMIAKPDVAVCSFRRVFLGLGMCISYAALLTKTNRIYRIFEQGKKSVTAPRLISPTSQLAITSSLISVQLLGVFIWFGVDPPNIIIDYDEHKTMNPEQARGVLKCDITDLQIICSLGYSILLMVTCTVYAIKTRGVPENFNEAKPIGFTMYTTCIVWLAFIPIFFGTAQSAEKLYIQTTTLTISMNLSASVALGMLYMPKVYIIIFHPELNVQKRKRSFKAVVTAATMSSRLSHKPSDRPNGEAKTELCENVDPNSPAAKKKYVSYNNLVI

[6] = molecular target: Ubiquitin carboxyl-terminal hydrolase BAP1 (Homo sapiens, UniProt Q92560); test: BAP1 deubiquitinase inhibitors, dose response, biochemical (AID 714); type: functional
[7] = cytotoxicity in HPDE-C7 cells, cell-based, fluorescence, HTS (AID 430); type: functional; conditions: Homo sapiens
[8] = cytotoxicity in KRAS-transformed pancreatic duct cells, primary screen, cell-based, fluorescence, HTS (AID 431); type: functional; conditions: Homo sapiens;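 also: cell line used: HPDE-C7K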
[9] = molecular target: G-protein coupled receptor 183 (Homo sapiens, UniProt P32249); test: SAR confirmation of small molecule antagonists of the EBI2 receptor via a luminescent beta-arrestin assa.; type: functional
Sequence of G-protein coupled receptor 183 (P32249 whole entry): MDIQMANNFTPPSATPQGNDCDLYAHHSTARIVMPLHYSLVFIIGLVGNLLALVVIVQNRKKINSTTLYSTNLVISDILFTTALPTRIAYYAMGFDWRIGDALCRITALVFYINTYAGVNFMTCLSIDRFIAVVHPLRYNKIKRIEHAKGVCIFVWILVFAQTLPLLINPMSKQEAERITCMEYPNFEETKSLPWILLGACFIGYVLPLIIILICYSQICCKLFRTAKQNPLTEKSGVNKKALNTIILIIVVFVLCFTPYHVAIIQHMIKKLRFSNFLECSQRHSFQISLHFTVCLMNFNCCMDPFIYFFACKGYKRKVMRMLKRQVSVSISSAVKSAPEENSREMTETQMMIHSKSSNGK

[10] = molecular target: Heat shock protein HSP 90-alpha (Homo sapiens, UniProt P07900); test: Luminescence-based dose response biochemical high throughput screening assay for inhibitors of the Heat Shock Protein 90 (HSP90). [Related pubchem assays: 1831 (Summary AID.), 1846 (Confirmation screen.), 1789 (Primary screen.)]
[11] = P. falciparum late gametocyte killing, dose response, luminescence (AID 1117278); type: functional, cell-based;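 also: gametocytes exposed to compound for 24 hours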
[12] = Jurkat T cell cytotoxicity, dose response, cytotoxicity control for P. falciparum gametocyte viability project, luminescence (AID 1117277); type: functional, cell-based;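 also: potency reflects loss of cellular ATP meaning fewer viable cells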

T1 sequence (Q00975 whole entry): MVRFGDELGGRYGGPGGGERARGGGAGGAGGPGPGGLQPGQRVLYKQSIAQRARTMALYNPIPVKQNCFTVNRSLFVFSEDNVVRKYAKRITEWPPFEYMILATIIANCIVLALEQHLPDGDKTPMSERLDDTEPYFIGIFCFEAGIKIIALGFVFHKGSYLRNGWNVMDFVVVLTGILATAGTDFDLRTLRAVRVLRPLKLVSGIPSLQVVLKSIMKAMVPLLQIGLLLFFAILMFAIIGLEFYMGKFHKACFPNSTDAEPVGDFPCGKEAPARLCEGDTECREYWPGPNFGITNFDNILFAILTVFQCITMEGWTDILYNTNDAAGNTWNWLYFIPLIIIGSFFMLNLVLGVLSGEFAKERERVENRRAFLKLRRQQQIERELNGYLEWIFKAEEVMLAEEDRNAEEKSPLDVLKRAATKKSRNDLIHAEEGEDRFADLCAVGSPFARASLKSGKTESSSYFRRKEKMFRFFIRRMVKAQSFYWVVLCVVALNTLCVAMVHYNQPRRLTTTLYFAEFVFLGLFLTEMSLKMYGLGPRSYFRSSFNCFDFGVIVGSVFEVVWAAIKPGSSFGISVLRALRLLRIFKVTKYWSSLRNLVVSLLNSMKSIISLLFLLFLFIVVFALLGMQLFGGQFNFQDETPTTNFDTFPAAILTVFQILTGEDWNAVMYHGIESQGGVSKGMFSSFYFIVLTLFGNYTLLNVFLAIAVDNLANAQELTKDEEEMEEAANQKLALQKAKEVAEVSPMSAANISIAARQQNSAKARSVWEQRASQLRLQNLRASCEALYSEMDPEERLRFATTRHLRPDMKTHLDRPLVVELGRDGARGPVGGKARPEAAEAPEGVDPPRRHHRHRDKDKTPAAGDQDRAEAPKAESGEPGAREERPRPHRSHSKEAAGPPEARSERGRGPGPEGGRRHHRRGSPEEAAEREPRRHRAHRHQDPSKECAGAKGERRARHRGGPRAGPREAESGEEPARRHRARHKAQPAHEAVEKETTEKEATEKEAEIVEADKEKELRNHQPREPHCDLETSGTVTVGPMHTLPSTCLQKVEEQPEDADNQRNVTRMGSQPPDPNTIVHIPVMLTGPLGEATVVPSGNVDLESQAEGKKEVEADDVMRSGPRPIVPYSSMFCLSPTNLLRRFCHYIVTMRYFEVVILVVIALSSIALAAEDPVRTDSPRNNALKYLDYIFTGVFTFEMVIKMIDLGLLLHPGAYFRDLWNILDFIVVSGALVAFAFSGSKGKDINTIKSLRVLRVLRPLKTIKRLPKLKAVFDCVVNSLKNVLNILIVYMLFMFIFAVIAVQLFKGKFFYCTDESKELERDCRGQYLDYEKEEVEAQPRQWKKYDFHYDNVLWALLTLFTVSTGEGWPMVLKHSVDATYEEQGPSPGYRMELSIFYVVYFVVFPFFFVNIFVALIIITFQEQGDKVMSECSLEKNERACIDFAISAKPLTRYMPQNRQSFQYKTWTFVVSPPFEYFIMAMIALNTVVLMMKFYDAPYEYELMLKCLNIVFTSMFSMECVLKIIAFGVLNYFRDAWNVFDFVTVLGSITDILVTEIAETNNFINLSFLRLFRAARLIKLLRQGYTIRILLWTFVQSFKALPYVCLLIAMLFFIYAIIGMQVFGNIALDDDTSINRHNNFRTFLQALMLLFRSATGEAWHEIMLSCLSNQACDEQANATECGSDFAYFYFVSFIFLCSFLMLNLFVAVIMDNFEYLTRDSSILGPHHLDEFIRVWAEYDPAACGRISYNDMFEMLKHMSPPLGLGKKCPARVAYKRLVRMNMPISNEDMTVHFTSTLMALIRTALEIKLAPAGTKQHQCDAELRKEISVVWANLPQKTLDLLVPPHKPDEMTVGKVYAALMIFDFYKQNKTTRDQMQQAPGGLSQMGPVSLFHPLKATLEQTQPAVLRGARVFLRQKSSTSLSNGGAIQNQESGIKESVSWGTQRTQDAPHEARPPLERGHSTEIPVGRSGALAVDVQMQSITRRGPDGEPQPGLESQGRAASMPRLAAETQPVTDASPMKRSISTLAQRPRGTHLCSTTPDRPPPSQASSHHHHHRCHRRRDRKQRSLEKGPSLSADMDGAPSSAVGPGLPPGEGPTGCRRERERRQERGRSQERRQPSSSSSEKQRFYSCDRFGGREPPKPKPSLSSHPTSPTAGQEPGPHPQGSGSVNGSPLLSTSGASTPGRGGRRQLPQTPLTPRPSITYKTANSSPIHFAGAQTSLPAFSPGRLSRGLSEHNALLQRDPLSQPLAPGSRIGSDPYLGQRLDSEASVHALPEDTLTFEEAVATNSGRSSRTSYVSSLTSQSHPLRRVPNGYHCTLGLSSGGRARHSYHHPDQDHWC
T1 sequence (Q02410 whole entry): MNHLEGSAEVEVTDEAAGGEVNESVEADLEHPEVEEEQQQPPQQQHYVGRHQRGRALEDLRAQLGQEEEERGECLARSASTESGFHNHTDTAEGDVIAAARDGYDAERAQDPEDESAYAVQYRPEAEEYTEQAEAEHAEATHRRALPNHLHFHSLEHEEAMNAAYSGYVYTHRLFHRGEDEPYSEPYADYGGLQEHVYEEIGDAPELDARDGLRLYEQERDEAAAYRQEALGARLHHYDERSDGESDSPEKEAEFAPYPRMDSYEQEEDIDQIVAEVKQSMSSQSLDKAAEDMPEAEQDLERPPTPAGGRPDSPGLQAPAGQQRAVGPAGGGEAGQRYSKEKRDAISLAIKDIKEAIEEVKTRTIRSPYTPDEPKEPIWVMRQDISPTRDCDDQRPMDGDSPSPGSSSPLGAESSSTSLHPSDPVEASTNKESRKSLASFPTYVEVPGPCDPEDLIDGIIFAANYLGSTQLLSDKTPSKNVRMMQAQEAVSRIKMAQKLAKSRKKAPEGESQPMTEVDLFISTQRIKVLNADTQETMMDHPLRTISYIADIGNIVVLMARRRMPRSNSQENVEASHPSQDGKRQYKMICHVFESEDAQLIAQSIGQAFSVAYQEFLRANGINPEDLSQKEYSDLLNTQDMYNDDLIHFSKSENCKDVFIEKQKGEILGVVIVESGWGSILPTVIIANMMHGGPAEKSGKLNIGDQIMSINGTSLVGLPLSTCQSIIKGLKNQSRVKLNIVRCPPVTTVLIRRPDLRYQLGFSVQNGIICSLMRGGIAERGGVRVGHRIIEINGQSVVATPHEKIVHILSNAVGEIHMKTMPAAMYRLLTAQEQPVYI

N=C1/C(=C\c2ccc(-c3ccc(C(=O)O)cc3)o2)C(=O)N=C2SC=C(c3ccccc3)N12
IC50 [1]: 4.12 µM (active)
IC50 [2]: 29.2 µM (active)
IC50 [3]: 182 µM (active)

CC(C)(C#N)Nc1ccccc1
IC50 [4]: > 100 µM (not active)

CCOc1ccc(-n2c(C)cc(C(=O)CSCc3cccc(C)c3)c2C)cc1
EC50 [5]: 10 µM (active)

Cc1sc(NC(=O)CSc2nnc3scc(-c4ccccc4)n23)c(C#N)c1C
IC50 [6]: > 50 µM (not active)
EC50 [7]: 8.93 µM (active)
EC50 [8]: 8.96 µM (active)

CCN1CCN(C(=O)/C=C/c2ccc(Br)cc2)CC1
IC50 [9]: 0.0158 µM (active)

CC(=O)Oc1ccc(Nc2ccccc2)cc1
IC50 [10]: 6.62 µM (active)

CN(C)S(=O)(=O)N1CCC(Oc2ccc(C(=O)NCc3cnn(C)c3)cc2)CC1
IC50 [11]: > 109 µM (inactive)
IC50 [12]: > 83.3 µM (inactive)

Source: ChEMBL document CHEMBL1201862, “PubChem BioAssay data set” (2004)
